Experimental data: EPA's ToxRefDB 2

Key:
rat [1] = conditions: Subchronic oral toxicity in rodents, sprague dawley, Feed, dose end: 90 day, group: systemic
mouse [2] = conditions: Chronic toxicity; cd1; Oral; Feed; dose end: 1 year; group: systemic; systemic / in life observation / body weight / body weight gain + systemic / in life observation / food consumption / food efficiency
rat [3] = conditions: Prenatal developmental toxicity study, wistar, Oral, Gavage/Intubation, dose end: 16 GD
rat [4] = conditions: Combined chronic toxicity/carcinogenicity, sprague dawley, Oral, Feed, dose end: 2 year, group: systemic
dog [5] = conditions: Subchronic oral toxicity in nonrodent, beagle, Capsule, dose end: 90 day, group: systemic, systemic / in life observation / clinical signs / [other] + systemic / in life observation / clinical signs / feces, discoloration + …
dog [6] = conditions: Chronic toxicity, beagle, Oral, Capsule, dose end: 53 week, group: systemic
rat [7] = conditions: Subchronic oral toxicity in rodents, sprague dawley, Feed, dose end: 90 day, group: systemic, systemic / in life observation / body weight / body weight gain + systemic / pathology gross / eye / opacity + systemic / pathology …
rat [8] = conditions: Multigenerational reproductive toxicity study, sprague dawley, Oral, Feed, dose end: 3 generation
mouse [9] = conditions: Carcinogenicity; cd1; Oral; Feed; dose end: 18 month; group: systemic; systemic / in life observation / body weight / body weight + systemic / in life observation / body weight / body weight gain + systemic / in…
mouse [10] = conditions: Subchronic oral toxicity in rodents, b6c3f1, Feed, dose end: 90 day
rat [11] = conditions: Subchronic oral toxicity in rodents, fischer, Feed, dose end: 90 day
mouse [12] = conditions: Multigenerational reproductive toxicity study; cd1; Oral; Feed; dose end: 2 generation; group: offspring; systemic / in life observation / body weight / offspring (pup) weight
mouse [13] = conditions: Carcinogenicity; b6c3f1; Oral; Feed; dose end: 2 year; group: systemic; systemic / in life observation / body weight / body weight
rat [14] = conditions: Carcinogenicity; fischer; Oral; Feed; dose end: 2 year; group: systemic; systemic / in life observation / body weight / body weight + systemic / pathology microscopic / kidney / hemosiderosis + systemic / …
[15] = systemic / organ weight / liver / absolute + systemic / organ weight / liver / relative to body weight
[16] = group: developmental, developmental / developmental malformation / bone / unossified + developmental / developmental malformation / bone / bipartite ossification…
[17] = group: maternal, systemic / in life observation / body weight / body weight gain + systemic / in life observation / food consumption / food consumption + …
[18] = systemic / in life observation / body weight / body weight + systemic / in life observation / body weight / body weight gain
[19] = systemic / clinical chemistry / tyrosine / tyrosine + systemic / pathology microscopic / lymph node / erythrophagocytosis
[20] = systemic / clinical chemistry / tyrosine / tyrosine + systemic / pathology microscopic / lymph node / erythrophagocytosis + systemic / in …
[21] = group: offspring, systemic / clinical chemistry / tyrosine / tyrosine
[22] = group: parental, systemic / clinical chemistry / tyrosine / tyrosine
[23] = group: parental, systemic / clinical chemistry / tyrosine / tyrosine + systemic / organ weight / liver / relative to body weight
[24] = group: reproductive, reproductive / offspring survival early / litter size / litter size
[25] = group: reproductive, reproductive / offspring survival early / litter size / litter size + reproductive / offspring survival early / birth index / live birth …
[26] = group: maternal, reproductive / reproductive performance / estrous cycle / length
[27] = group: systemic, systemic / clinical chemistry / 5' nucleotidase / 5' nucleotidase + systemic / clinical chemistry / alanine aminotransferase (alt/sgpt) / …
[28] = group: systemic, systemic / in life observation / body weight / body weight gain + systemic / organ weight / liver / relative to body weight
[29] = group: systemic, systemic / organ weight / liver / relative to body weight
[30] = group: systemic, systemic / organ weight / liver / relative to body weight + systemic / clinical chemistry / bile acids / bile acids + systemic / in life …

Q: Which results are given for CS(=O)(=O)c1ccc(C(=O)C2C(=O)CCCC2=O)c([N+](=O)[O-])c1 [Mesotrione]?
A: LEL (rat [1]; [15]): 0.21 mg/kg/day; NEL (rat [1]; [15]): < 0.21 mg/kg/day; LOAEL (rat [1]; systemic / pathology microscopic / eye / neovascularization + systemic / pathology microscopic / eye / opacity): 0.63 mg/kg/day; NOAEL (rat [1]; systemic / pathology microscopic / eye / neovascularization + systemic / pathology microscopic / eye / opacity + systemic / clinical …): 0.41 mg/kg/day; LEL (mouse [2]): 1110 mg/kg/day; LOAEL (mouse [2]): 1110 mg/kg/day; NEL (mouse [2]): 56.2 mg/kg/day; NOAEL (mouse [2]): 56.2 mg/kg/day; LEL (rat [3]; [16]): 100 mg/kg/day; LOAEL (rat [3]; [16]): 100 mg/kg/day; NEL (rat [3]; [16]): < 100 mg/kg/day; NOAEL (rat [3]; [16]): < 100 mg/kg/day; LOAEL (rat [3]; group: maternal, systemic / in life observation / body weight / body weight gain + systemic / in life observation / food consumption / food consumption): 300 mg/kg/day; LEL (rat [3]; [17]): 300 mg/kg/day; NEL (rat [3]; [17]): 100 mg/kg/day; NOAEL (rat [3]; [17]): 100 mg/kg/day; LEL (rat [4]; [18]): 0.06 mg/kg/day; NEL (rat [4]; [18]): < 0.06 mg/kg/day; LOAEL (rat [4]; systemic / organ weight / kidney / absolute + systemic / organ weight / kidney / nos + systemic / organ weight / liver / absolute + systemic…): 0.48 mg/kg/day; LEL (dog [5]): 600 mg/kg/day; LOAEL (dog [5]): > 1000 mg/kg/day; NEL (dog [5]): 100 mg/kg/day; NOAEL (dog [5]): ≥ 1000 mg/kg/day; LOAEL (dog [6]; [19]): 10 mg/kg/day; NOAEL (dog [6]; [19]): < 10 mg/kg/day; LEL (dog [6]; [20]): 10 mg/kg/day; NEL (dog [6]; [20]): < 10 mg/kg/day; LEL (rat [7]): 11 mg/kg/day; LOAEL (rat [7]): 11 mg/kg/day; NEL (rat [7]): 0.09 mg/kg/day; NOAEL (rat [7]): 0.09 mg/kg/day; LEL (rat [8]; [21]): 0.3 mg/kg/day; LOAEL (rat [8]; [21]): 0.3 mg/kg/day; NEL (rat [8]; [21]): < 0.3 mg/kg/day; NOAEL (rat [8]; [21]): < 0.3 mg/kg/day; LOAEL (rat [8]; [22]): 0.3 mg/kg/day; NOAEL (rat [8]; [22]): < 0.3 mg/kg/day; LEL (rat [8]; [23]): 0.3 mg/kg/day; NEL (rat [8]; [23]): < 0.3 mg/kg/day; LEL (rat [8]; [24]): 1.1 mg/kg/day; LOAEL (rat [8]; [24]): 1.1 mg/kg/day; NEL (rat [8]; [25]): 0.3 mg/kg/day; NOAEL (rat [8]; [25]): 0.3 mg/kg/day; LEL (mouse [9]): 898 mg/kg/day; LOAEL (mouse [9]): 898 mg/kg/day; NEL (mouse [9]): 49.7 mg/kg/day; NOAEL (mouse [9]): 49.7 mg/kg/day

Q: What does the source list for Cc1ccccc1O [o-Cresol]?
A: LEL (mouse [10]; [26]): 237 mg/kg/day; LOAEL (mouse [10]; [26]): > 3200 mg/kg/day; NOAEL (mouse [10]; [26]): ≥ 3200 mg/kg/day; LOAEL (mouse [10]; [27]): > 3200 mg/kg/day; NOAEL (mouse [10]; [27]): ≥ 3200 mg/kg/day; LEL (mouse [10]; [28]): 199 mg/kg/day; NEL (mouse [10]; [28]): < 199 mg/kg/day; LEL (rat [11]; [26]): 129 mg/kg/day; LOAEL (rat [11]; [26]): > 2020 mg/kg/day; NEL (rat [11]; [26]): < 129 mg/kg/day; NOAEL (rat [11]; [26]): ≥ 2020 mg/kg/day; LEL (rat [11]; [29]): 510 mg/kg/day; LOAEL (rat [11]; [29]): 1020 mg/kg/day; NEL (rat [11]; [30]): 247 mg/kg/day; NOAEL (rat [11]; [30]): 510 mg/kg/day; LEL (mouse [12]): 624 mg/kg/day; LOAEL (mouse [12]): > 624 mg/kg/day; NOAEL (mouse [12]): ≥ 624 mg/kg/day

Q: Which LEL (mouse [13]) does the source give for c1ccc(N=Nc2ccccc2)cc1 [Azobenzene] here?
A: 30 mg/kg/day

Q: And the LOAEL (mouse [13])?
A: 81.8 mg/kg/day

Q: What about the NEL (mouse [13]) of the same compound?
A: < 30 mg/kg/day

Q: And the LEL (rat [14])?
A: 10 mg/kg/day

Q: And the LOAEL (rat [14])?
A: > 20 mg/kg/day

Q: And the NEL (rat [14])?
A: < 10 mg/kg/day

Q: And the NOAEL (rat [14])?
A: ≥ 20 mg/kg/day
